Experimental data as given in patent US20230129258A1, “HETEROTANDEM BICYCLIC PEPTIDE COMPLEXES” (BicycleTx Limited, priority 2019, published 2023).

Target: CD137 (Homo sapiens, UniProt Q07011)
Assay: CD137 reporter assay (Promega CD137 luciferase reporter, Jurkat cells) in co-culture with Nectin-4-expressing tumor cells
Assay type: cell-based
Set-up: host or cells: Jurkat reporter cells
Conditions: co-culture with HT1376, Table 2A

Chain of CD137 (Q07011 24-255): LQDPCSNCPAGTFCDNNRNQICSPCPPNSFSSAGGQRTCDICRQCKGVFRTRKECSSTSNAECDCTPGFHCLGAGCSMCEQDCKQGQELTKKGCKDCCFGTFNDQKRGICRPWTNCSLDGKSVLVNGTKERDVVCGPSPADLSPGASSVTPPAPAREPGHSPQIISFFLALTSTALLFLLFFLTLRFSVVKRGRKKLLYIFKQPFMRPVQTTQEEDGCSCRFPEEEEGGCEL

Row | SMILES | EC50 (EC50 (nM)) | Emax
1 | CCCC[C@@H]1NC(=O)[C@H](Cc2ccc(O)cc2)NC(=O)[C@@H]2CCCN2C(=O)[C@H](CC(=O)O)NC(=O)[C@H](C)NC(=O)[C@H](Cc2ccccc2)NC(=O)[C@@H]2CSCCC(=O)N3CN(CN(C3)C(=O)CCSC[C@@H](C(=O)N[C@@H](C)C(N)=O)NC1=O)C(=O)CCSC[C@H](NC(C)=O)C(=O)N[C@@H](CC(C)(C)C)C(=O)N1CCC[C@H]1C(=O)N[C@@H](CCC(=O)O)C(=O)N[C@H](CCCCNC(=O)CCc1cn(CCOCCOCCOCCN(CCOCCOCCOCCC(=O)NCCCC[C@H]3NC(=O)[C@H](Cc4cccc5ccccc45)NC(=O)[C@@H]4CCCN4C(=O)[C@@H](NC(C)=O)CSCCC(=O)N4CN5CN(C4)C(=O)CCSC[C@H](NC3=O)C(=O)N[C@@H](CCSC)C(=O)N[C@@H](CCCCNC(=N)N)C(=O)N[C@@H](CC(=O)O)C(=O)N[C@@H](Cc3c[nH]c4ccccc34)C(=O)N[C@@H](CO)C(=O)N[C@@H]([C@@H](C)O)C(=O)N3CCC[C@H]3C(=O)N3C[C@H](O)C[C@H]3C(=O)N[C@@H](Cc3c[nH]c4ccccc34)C(=O)N[C@H](C(N)=O)CSCCC5=O)CCOCCOCCOCCn3cc(CCC(=O)NCCCC[C@H]4NC(=O)[C@H](CCC(=O)O)NC(=O)[C@@H]5CCCN5C(=O)[C@H](CC(C)(C)C)NC(=O)[C@@H](NC(C)=O)CSCCC(=O)N5CN6CN(C5)C(=O)CCSC[C@H](NC(=O)[C@H](Cc5ccc(O)cc5)NC(=O)[C@@H]5CCCN5C4=O)C(=O)N[C@@H](Cc4ccccc4)C(=O)N[C@@H](C)C(=O)N[C@@H](CC(=O)O)C(=O)N4CCC[C@H]4C(=O)N[C@@H](Cc4ccc(O)cc4)C(=O)N[C@@H](CCCC)C(=O)N[C@H](C(=O)N[C@@H](C)C(N)=O)CSCCC6=O)nn3)nn1)C(=O)N1CCC[C@H]1C(=O)N[C@@H](Cc1ccc(O)cc1)C(=O)N2 [BCY12490] | 0.23 nM | 
2 | CCCC[C@@H]1NC(=O)[C@H](Cc2ccc(O)cc2)NC(=O)[C@@H]2CCCN2C(=O)[C@H](CC(=O)O)NC(=O)[C@H](C)NC(=O)[C@H](Cc2ccccc2)NC(=O)[C@@H]2CSCCC(=O)N3CN(CN(C3)C(=O)CCSC[C@@H](C(=O)N[C@@H](C)C(N)=O)NC1=O)C(=O)CCSC[C@H](NC(C)=O)C(=O)N[C@@H](CC(C)(C)C)C(=O)N1CCC[C@H]1C(=O)N[C@@H](CCC(=O)O)C(=O)N[C@H](CCCCNC(=O)CCc1cn(CCOCCOCCOCCN(CCOCCOCCOCCC(=O)N[C@H]3CSCCC(=O)N4CN5CN(C4)C(=O)CCSC[C@H](NC(=O)[C@@H](CC(=O)O)NC(=O)[C@H](Cc4cccc6ccccc46)NC(=O)[C@@H]4CCCN4C3=O)C(=O)N[C@@H](CCSC)C(=O)N[C@@H](CCCCNC(=N)N)C(=O)N[C@@H](CC(=O)O)C(=O)N[C@@H](Cc3c[nH]c4ccccc34)C(=O)N[C@@H](CO)C(=O)N[C@@H]([C@@H](C)O)C(=O)N3CCC[C@H]3C(=O)N3C[C@H](O)C[C@H]3C(=O)N[C@@H](Cc3c[nH]c4ccccc34)C(=O)N[C@H](C(N)=O)CSCCC5=O)CCOCCOCCOCCn3cc(CCC(=O)NCCCC[C@H]4NC(=O)[C@H](CCC(=O)O)NC(=O)[C@@H]5CCCN5C(=O)[C@H](CC(C)(C)C)NC(=O)[C@@H](NC(C)=O)CSCCC(=O)N5CN6CN(C5)C(=O)CCSC[C@H](NC(=O)[C@H](Cc5ccc(O)cc5)NC(=O)[C@@H]5CCCN5C4=O)C(=O)N[C@@H](Cc4ccccc4)C(=O)N[C@@H](C)C(=O)N[C@@H](CC(=O)O)C(=O)N4CCC[C@H]4C(=O)N[C@@H](Cc4ccc(O)cc4)C(=O)N[C@@H](CCCC)C(=O)N[C@H](C(=O)N[C@@H](CCCCNC(=O)c4ccc(-c5c7ccc(=N)c(S(=O)(=O)O)c-7oc7c(S(=O)(=O)O)c(N)ccc57)c(C(=O)O)c4)C(N)=O)CSCCC6=O)nn3)nn1)C(=O)N1CCC[C@H]1C(=O)N[C@@H](Cc1ccc(O)cc1)C(=O)N2 [BCY13583] |  | 63 fold induction over background
